From the supplement of paper PMC5412046
Counter-ions that a name gives are not always drawn.

Columns and labels:
SB.msgc-1 = test: AC50 for growth inhibition (viability) (log10 M); higher = less potent; conditions: SB.msgc-1 (sporadic gastric cancer)
Outline: (§1)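 Gastric cancer cells derived from patients with hereditary or sporadic disease were seeded at 500 cells in 5 μL medium per 1536 well. A pintool delivered 23 nL of compound in DMSO, as 11 threefold dilutions from a final 46 μM. After 48 h, CellTiter-Glo was added for 30 min at room temperature and luminescence was read on a ViewLux. The log half-maximal activity concentration was taken from a four-parameter fit of viability normalised to DMSO, using only high-quality curve classes.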

SB.mhdgc-1 = test: as above; conditions: SB.mhdgc-1 (hereditary c.1380delA CDH1 gastric cancer)
Outline: as §1

Structure (SMILES) | AC50 for growth inhibition (log10 M) (SB.msgc-1) | AC50 for growth inhibition (log10 M) (SB.mhdgc-1)
O=C(/C=C/c1cccc([S+](=O)([O-])Nc2ccccc2)c1)NO [Belinostat] | -5.47 | -5.02
C[C@@H]1CC[C@@]2(OC1)O[C@H]3C[C@H]4[C@@H]5C/C=C6/C[C@H](CC[C@]6(C)[C@H]5CC[C@]4(C)[C@H]3[C@@H]2C)O[C@@H]7O[C@H](CO)[C@@H](O[C@@H]8O[C@@H](C)[C@H](O)[C@@H](O)[C@H]8O)[C@H](O)[C@H]7O[C@@H]9O[C@@H](C)[C@H](O)[C@@H](O)[C@H]9O [Dioscin] | -5.23 | -5.38
Cc1nn(Cc2ccccc2Cl)c(C)c1CN(C)CC(O)COc1ccc(Cl)cc1 (centres undefined) | -4.73 | -4.78
C[N]1C=C(C=N1)C2=C3\C=N/NC(=O)C4=C3C(=CC(=C4)NC(=O)[C@H](N)C5CCCCC5)[NH]2 | -5.63 | -6.08
C[C@H]1O[C@H]([C@H](O)[C@@H]1O)N2\C=C(F)/C(=O)NC2=O [Doxifluridine] | -5.33 | -6.18
O=C(NOCC1CC1)c1ccc(F)c(F)c1Nc1ccc(I)cc1Cl | -4.83 | -4.78
CC1(C)CCC(=C(\C1)C2=CC=C(Cl)C=C2)/CN3CCN(CC3)C4=CC(=C(C=C4)C(=O)N[S+]([O-])(=O)C5=CC=C(NCC6CCOCC6)C(=C5)[N+]([O-])=O)OC7=CN=C8[NH]C=CC8=C7 [ABT-199] | -4.88 | -4.73
COc1cc([C@@H]2c3cc4c(cc3[C@H](O)[C@H]3COC(=O)[C@@H]23)OCO4)cc(OC)c1OC [Picropodophyllin] | -6.73 | -6.48
Cc1cc(Cl)ccc1OCCCC(=O)NO [Droxinostat] | -4.83 | -5.98
Cc1cc(Nc2nc(N[C@@H](C)c3ccc(F)cc3)c(C#N)cc2F)n[nH]1 [AZ-960] | -4.68 | -4.73
COc1cc2nc(-c3ccc(N4CCN(C)CC4)cc3)nc(NCCN3CCOCC3)c2cc1OC | -6.78 | -5.28
CC(C)Cn1cnc2c(N)nc3ccccc3c21 [Imiquimod] | -4.73 | -5.93
Cc1ccc(NC(=O)Nc2cc(C(F)(F)F)ccc2F)cc1Nc1ccc2c(c1)NC(=O)/C2=C\c1ccc[nH]1 [GNF-5837] | -4.73 | -4.83
COc1cc2nccc(Oc3ccc(NC(=O)C4(C(=O)Nc5ccc(F)cc5)CC4)cc3)c2cc1OC [Cabozantinib] | -5.48 | -6.33
CN(C)C(=O)c1ccc([S+](=O)([O-])c2ccc(NC(=O)[C@@](C)(O)C(F)(F)F)c(Cl)c2)cc1 [AZD-7545] | -4.73 | -4.88
O=C(Nc1ncc(SCCN2CCCC2)s1)[C@]1(c2ccc([S+](=O)([O-])C3CC3)cc2)C[C@H]1C1CCCCC1 | -4.78 | -5.03
C=CC(=O)Nc1cc2c(Nc3ccc(F)c(Cl)c3)ncnc2cc1C#CC(C)(C)N1CCN(C)CC1 [AV-412] | -5.08 | -5.53
COc1c(C)c2c(c(O)c1C/C=C(\C)CCC(=O)OCCN1CCOCC1)C(=O)OC2 [Mycophenolate mofetil] | -5.03 | -5.88
COc1ccc(C(=O)CC2(O)C(=O)Nc3c(Cl)ccc(Cl)c32)cc1 (centres undefined) [YK-4-279] | -5.63 | -5.78
COC/1=C/[C@@H]2[C@@H]3CC4=C(C(=C(OC)C=C4)O)[C@]2(CCN3C)CC1=O [Sinomenine] | -6.03 | -6.33
CC(C)n1cnc2c(NCCCCCCNC(=O)OC(C)(C)C)nc(NCCO)nc21 [CK59] | -5.23 | -4.93
CCC(C1CCC(C)C(O1)C(C)C(O)C(C)C(=O)C(CC)C2OC\3(O[C@]4(CC[C@@](C)(O4)C5CC[C@@](O)(CC)C(C)O5)C(O)\C=C3)C(C)CC2C)C([O-])=O (some centres undefined) [Salinomycin] | -6.58 | -6.28
CC/1=C/C(=O)N(O)/C(=C1)C2CCCCC2 [ciclopirox] | -5.43 | -4.73
Cc1ccc(C(=O)Nc2cccc(C(F)(F)F)c2)cc1-c1ccc2nc(NCCN3CCOCC3)ncc2c1 [AMG-47a] | -5.03 | -5.28
COc1ccc(C[C@@H](C)[C@@H](C)Cc2ccc(OC)c(OC)c2)cc1OC [Terameprocol] | -5.43 | -5.18
CCN(CC)CCNC(=O)c1ccc2nc(-c3ccccc3)c(-c3ccc(CN4CCC(n5c(=O)[nH]c6ccccc65)CC4)cc3)nc2c1 [Merck-22-6] | -4.88 | -5.63

Structure (SMILES) | AC50 for growth inhibition (log10 M) (SB.msgc-1) | AC50 for growth inhibition (log10 M) (SB.mhdgc-1)
C#Cc1cccc(Nc2ncnc3cc(OCCOC)c(OCCO)cc23)c1 [OSI-420] | -6.03 | -6.23
O=C(CCCCCCC(=O)Nc1cccnc1)NO [Pyroxamide] | -5.33 | -5.53
CN[C@H]1CCC2=CC(=C(OC)C(=C2C/3=C/C=C(OC)\C(=O)/C=C13)OC)OC [Demecolcine] | -8.83 | -8.13
COc1cc(C)c(Sc2cnc(NC(=O)c3ccc(CNC(C)C(C)(C)C)cc3)s2)cc1C(=O)N1CCN(C(C)=O)CC1 (centres undefined) | -4.98 | -4.98
Cn1cnc2c1c(=O)[nH]c(=O)n2C [Theobromine] | -4.78 | -4.63
CC[C@H](C)[N]1C=C(C)C2=C1C=C(C=C2C(=O)NC\C3=C(C)\C=C(\C)NC3=O)C4=CC=C(N=C4)N5CCNCC5 [GSK126] | -4.98 | -5.03
CC(C)(C)NC(=O)[C@@H]1CN(Cc2cccnc2)CCN1C[C@@H](O)C[C@@H](Cc1ccccc1)C(=O)N[C@H]1c2ccccc2C[C@H]1O.O=S(=O)(O)O [Indinavir] | -4.78 | -6.08
COC(=O)Nc1nc2cc(C(=O)c3ccc(F)cc3)ccc2[nH]1 [Flubendazole] | -6.23 | -5.23
N#C/C(=C(/N)Sc1ccc(N)cc1)c1ccccc1C(F)(F)F [SL-327] | -5.13 | -5.28
C[N]1C=C(C2=C1C=CC=C2)\C3=C(\C(=O)NC3=O)C4=C5CC(CN)CC[N]5C6=C4C=CC=C6 (centres undefined) [Ro-31-8425] | -4.78 | -4.88
Oc1c(Cl)cc(Cl)c2cccnc12 [Chloroxine] | -4.68 | -4.93
CCC(C)SSc1ncc[nH]1 (centres undefined) [PX-12] | -4.58 | -4.63
C=CC(=O)Nc1cccc(Oc2nc(Nc3ccc(N4CCN(C)CC4)cc3)ncc2Cl)c1 [WZ-3146] | -5.88 | -5.18
C=CCNc1c(O)cc2c(O)c1C[C@@H](C)C[C@H](OC)[C@H](O)[C@@H](C)/C=C(/C)[C@H](OC(N)=O)[C@@H](OC)/C=C\C=C(\C)C(=O)N2 [Retaspimycin] | -7.48 | -6.88
Cc1cn2c(-c3cn[nH]c3)cnc2c(Nc2ccc(C(=O)N3CCNCC3)cc2F)n1 | -4.83 | -4.98
CC1(C)CNc2cc(NC(=O)c3cccnc3NCc3ccncc3)ccc21 [Motesanib] | -5.98 | -7.23
COc1cccc2c1C(=O)c1c(O)c3c(c(O)c1C2=O)C[C@@](O)(C(=O)CO)C[C@@H]3O[C@H]1C[C@H](N)[C@H](O[C@H]2CCCCO2)[C@H](C)O1 [Pirarubicin] | -5.68 | -6.08
CN1CCC(CC1)COC2=CN=C(N=C2)C3=CC(=CC=C3)CN4/N=C(\C=C/C4=O)C5=CC(=CC=C5)C#N | -6.78 | -7.48
CCCCOc1c(C(=O)c2c(F)cc(C)cc2F)cnc2[nH]ncc12 | -5.63 | -5.63
CCN(CC)CCOC1=CC=C(NC2=NC=C3\C=C(/C(=O)N(C)C3=N2)C4=C(Cl)C=CC=C4Cl)C=C1 | -5.98 | -5.18
C[C@]12CC[C@@H]3c4ccc(O)cc4CC[C@H]3[C@@H]1[C@@H](O)[C@@H](O)[C@@H]2O [Estetrol] | -4.68 | -4.88
CC(C)NCC(O)c1ccc(NS(C)(=O)=O)cc1 (centres undefined) [Sotalol] | -5.03 | -4.83
CN1CCN(CCOc2cc(OC3CCOCC3)c3c(Nc4c(Cl)ccc5c4OCO5)ncnc3c2)CC1 [Saracatinib] | -5.88 | -4.63
C[C@@H](Oc1cc(-c2cnn(C3CCNCC3)c2)cnc1N)c1c(Cl)ccc(F)c1Cl [Crizotinib] | -4.63 | -4.68
COCCCC/C(=N\OCCN)c1ccc(C(F)(F)F)cc1 [Fluvoxamine maleate] | -4.88 | -4.63
COC1=CC(=CC=C1)C2=CC=C(NC(=O)/C3=C(/CCC3)C(O)=O)C(=C2)F [Vidofludimus] | -4.88 | -5.33
